# Test results as given in US7872036B2, “3-triazolylphenyl sulfide derivative and insecticide, miticide and nematicide containing it as an active ingredient” (Kumiai Chemical Industry Co., Ltd., priority 2004, dated 2011).
# Tests used:
# [1] = test system: southern root-knot nematodes; experiment: Nemastatic test on southern root-knot nematodes; type: in vivo, Meloidogyne sp.; details: diluted solution 20 ppm mixed 1:1 with suspension of second stage larvae, 25° C., 5 days
# Protocol: Compounds of the present invention (5 parts) and Tween 20 (tradename for polyoxyethylene sorbitan monolaurate) (1 part) as a spreader were dissolved n N,N-dimethylformamide (94 parts) to prepare 5% emulsifiable concentrates of the compounds of the present invention. Distilled water was added to the emulsifiable concentrates to prepare diluted solutions having a concentration of the compounds of the present invention of 20 ppm. 0.5 ml of the diluted solutions and 0.5 ml of water suspensions containing 100 second stage larvae of southern root-knot nematodes were mixed, and the mixture were placed in a thermostatic chamber at 25° C. for 5 days, and the survivors were counted for calculation of the nemastatic degree by using Equation 3. The test was carried out by two series system.
# [2] = test system: two-spotted spider mites; experiment: Miticidal test on two-spotted spider mites (by dipping); type: in vivo, Tetranychus urticae; design: scale not given here; details: dipping of soybean seedlings, active ingredient 500 ppm, 25° C., 13 days
# Protocol: (§1) Wettable powders were prepared in accordance with Formulation Example 2 and diluted with water to an active ingredient concentration of 500 ppm. Soybean seedlings which had been inoculated with imago two-spotted spider mites were dipped in the resulting solutions and dried in air. The treated seedlings were placed in a thermostatic chamber at 25° C. for 13 days, and the mite survivors were counted for calculation of the miticidal value by using Equation 2. The test was carried out by one series system.
# [3] = test system: two-spotted spider mites; experiment: Miticidal test on two-spotted spider mites (by soil drenching); type: in vivo, Tetranychus urticae; design: scale not given here; details: active ingredient 100 ppm, 5 ml per 100 g soil, 25° C., 13 days
# Protocol: as §1, with “100” for “500”, “100 g of the soil in cups with soybean” for “Soybean”, “drenched with 5 ml of” for “dipped in”, “solutions.” for “solutions and dried in air.”, “[…]” for “thermostatic”, “2.” for “2. The test was carried out by one series system.”
# [4] = test system: brown planthoppers; experiment: Insecticidal test on brown planthoppers; type: in vivo, Nilaparvata lugens; details: active ingredient 500 ppm, germinating rice immersed, 4th-instar larvae, 25° C., 6 days
# Protocol: Wettable powders were prepared in accordance with Formulation Example 2 and diluted with water to an active ingredient concentration of 500 ppm. Germinating rice was immersed in the resulting solutions and put in a plastic cup with a capacity of 60 ml. Ten 4th-instar larvae of brown planthoppers were released to the cup, and the cup was covered and placed in a thermostatic chamber at 25° C. for 6 days, and the survivors were counted for calculation of the insecticidal degree by using Equation 1. The test was carried out by one series system.
SMILES,Nemastatic degree (%) [1] [%],Miticidal value [2],Miticidal value [3],Insecticidal degree (%) [4] [%]
Cc1cc(F)c(-n2nc(C(F)(F)C(F)(F)C(F)(F)F)nc2N)cc1[S+]([O-])CC(F)(F)F (racemic) [Compound 175],97,,,
Cc1cc(F)c(-n2nc(SC(F)(F)C(F)(F)F)nc2N)cc1[S+]([O-])CC(F)(F)F (racemic) [Compound 177],,100,100,
Cc1cc(F)c(-n2nc(C(C(F)(F)F)C(F)(F)F)nc2N)cc1[S+]([O-])CC(F)(F)F (racemic) [Compound 183],,100,100,
Cc1cc(F)c(-n2nc(C(F)(F)F)nc2NC(=O)C(F)F)cc1[S+]([O-])CC(F)(F)F (racemic) [Compound 200],,,,100
Cc1cc(F)c(-n2nc(C(F)(F)F)nc2C(N)=O)cc1[S+]([O-])CC(F)(F)F (racemic) [Compound 208],100,,,
Cc1cc(F)c(-n2nc(C(F)(F)F)nc2N)cc1SCC1CC1 [Compound 3],100,,,
CSc1nc(N)n(-c2cc(SCC(F)(F)F)c(C)cc2F)n1 [Compound 15],100,,,
Cc1cc(F)c(-n2nc([S+](C)[O-])nc2N)cc1SCC(F)(F)F (centres unmarked) [Compound 17],99,,,100
Cc1cc(F)c(-n2nc(S(C)(=O)=O)nc2N)cc1[S+]([O-])CC(F)(F)F (centres unmarked) [Compound 20],92,,,100
CCSc1nc(N)n(-c2cc(SCC(F)(F)F)c(C)cc2F)n1 [Compound 21],100,,,
CC[S+]([O-])c1nc(N)n(-c2cc(SCC(F)(F)F)c(C)cc2F)n1 (centres unmarked) [Compound 23],100,,,90
CC[S+]([O-])c1nc(N)n(-c2cc([S+]([O-])CC(F)(F)F)c(C)cc2F)n1 (centres unmarked) [Compound 24],,,,90
CCS(=O)(=O)c1nc(N)n(-c2cc([S+]([O-])CC(F)(F)F)c(C)cc2F)n1 (centres unmarked) [Compound 26],,,,90
Cc1cc(F)c(-n2nc(SC(F)F)nc2N)cc1SCC(F)(F)F [Compound 27],100,,,100
Cc1cc(F)c(-n2nc(SC(F)(F)F)nc2N)cc1SCC(F)(F)F [Compound 31],100,,,100
CNc1nc(C(F)(F)F)nn1-c1cc(SCC(F)(F)F)c(C)cc1F [Compound 39],100,,,100
CCc1nc(N)n(-c2cc(SCC(F)(F)F)c(C)cc2F)n1 [Compound 49],,,,100
CCNc1nc(C(F)(F)F)nn1-c1cc(SCC(F)(F)F)c(C)cc1F [Compound 59],100,,,100
C#CCNc1nc(C(F)(F)F)nn1-c1cc(SCC(F)(F)F)c(C)cc1F [Compound 65],100,,,100

SMILES,Nemastatic degree (%) [1] [%],Miticidal value [2],Miticidal value [3],Insecticidal degree (%) [4] [%]
CC(=O)Nc1nc(C(F)(F)F)nn1-c1cc(SCC(F)(F)F)c(C)cc1F [Compound 75],94,,,100
COC(=O)Nc1nc(C(F)(F)F)nn1-c1cc(SCC(F)(F)F)c(C)cc1F [Compound 79],94,,,100
Cc1cc(F)c(-n2nc(C(F)(F)F)nc2NC(=O)N(C)C)cc1SCC(F)(F)F [Compound 83],,,,10
CNc1nc(C(F)(F)F)nn1-c1cc(SCC(F)(F)F)c(C)cc1Cl [Compound 97],97,,,
CNc1nc(SC(F)(F)C(F)(F)F)nn1-c1cc(SCC(F)(F)F)c(C)cc1F [Compound 101],98,,,100
Cc1cc(F)c(-n2nc(C(C)(C)C#N)nc2N)cc1SCC(F)(F)F [Compound 103],94,,,
Cc1nc(N)n(-c2cc(SCC(F)(F)F)c(C)cc2F)n1 [Compound 105],,,,90
Cc1cc(F)c(-n2nc(C(C)C)nc2N)cc1SCC(F)(F)F [Compound 110],97,,,
CC(=O)Nc1nc(C(C)(C)C)nn1-c1cc(SCC(F)(F)F)c(C)cc1F [Compound 112],,,,90
CCc1nc(N)n(-c2cc(SCC(F)(F)F)c(C)cc2F)n1 [Compound 116],97,,,
Cc1ccc(-n2nc(C(F)(F)F)nc2N)cc1SCC(F)(F)F [Compound 124],100,,,100
Nc1nc(C(F)(F)F)nn1-c1ccc(Cl)c(SCC(F)(F)F)c1 [Compound 126],94,,,
CCN(CC)c1nc(C(F)(F)F)nn1-c1cc(SCC(F)(F)F)c(C)cc1F [Compound 128],,,,100
Cc1cc(F)c(-n2nc(SCC(F)(F)F)nc2N)cc1SCC(F)(F)F [Compound 130],100,,,
CCC[S+]([O-])c1nc(N)n(-c2cc([S+]([O-])CC(F)(F)F)c(C)cc2F)n1 (centres unmarked) [Compound 137],,,,100
Cc1cc(F)c(-n2nc(SCC#N)nc2N)cc1SCC(F)(F)F [Compound 140],99,,,
Cc1cc(F)c(-n2nc(SCC#N)nc2N)cc1[S+]([O-])CC(F)(F)F (centres unmarked) [Compound 141],97,,,100
CNc1nc(C(F)(F)F)nn1-c1cc(SCC(F)(F)F)c(C)cc1C [Compound 146],98,,,
C#CCSc1nc(N)n(-c2cc(SCC(F)(F)F)c(C)cc2F)n1 [Compound 148],99,,,100

SMILES,Nemastatic degree (%) [1] [%],Miticidal value [2],Miticidal value [3],Insecticidal degree (%) [4] [%]
C#CC[S+]([O-])c1nc(N)n(-c2cc(SCC(F)(F)F)c(C)cc2F)n1 (centres unmarked) [Compound 150],,,,100
CC(=O)N(C)c1nc(SCC(F)(F)F)nn1-c1cc(SCC(F)(F)F)c(C)cc1F [Compound 158],,,,90
CNc1nc(SCC(F)(F)F)nn1-c1cc(SCC(F)(F)F)c(C)cc1F [Compound 160],100,,,100
Cc1cc(F)c(-n2nc(C(F)(F)F)nc2NN)cc1[S+]([O-])CC(F)(F)F (centres unmarked) [Compound 163],,,,100
Cc1cc(F)c(-n2nc(C(F)(F)F)nc2NCC#N)cc1SCC(F)(F)F [Compound 164],100,,,100
Cc1cc(F)c(-n2nc(C(F)(F)F)nc2NCC#N)cc1[S+]([O-])CC(F)(F)F (centres unmarked) [Compound 165],,,,100
CNC(=O)Nc1nc(C(F)(F)F)nn1-c1cc(SCC(F)(F)F)c(C)cc1F [Compound 168],100,,,100
Cc1cc(F)c(-n2nc(C(F)(F)F)nc2N(C)N)cc1SCC(F)(F)F [Compound 170],100,,,100
Cc1cc(F)c(-n2nc(C(F)(F)C(F)(F)C(F)(F)F)nc2N)cc1SCC(F)(F)F [Compound 174],100,,,90
Cc1cc(F)c(-n2nc(SC(F)(F)C(F)(F)F)nc2N)cc1SCC(F)(F)F [Compound 176],97,,,90
Cc1cc(F)c(-n2nc(C(C(F)(F)F)C(F)(F)F)nc2N)cc1SCC(F)(F)F [Compound 182],91,,,
C#CCNc1nc(SCC(F)(F)F)nn1-c1cc(SCC(F)(F)F)c(C)cc1F [Compound 184],,,,100
CCC(=O)Nc1nc(C(F)(F)F)nn1-c1cc(SCC(F)(F)F)c(C)cc1F [Compound 186],,,,100
Cc1cc(F)c(-n2nc(C(F)(F)F)nc2NC(=O)CCl)cc1SCC(F)(F)F [Compound 189],,,,100
C#CCNc1nc(SC(F)(F)C(F)(F)F)nn1-c1cc(SCC(F)(F)F)c(C)cc1F [Compound 193],100,,,100
Cc1cc(F)c(-n2nc(C(F)(F)F)nc2NC(=O)NC(C)C)cc1SCC(F)(F)F [Compound 201],,,,100
COC(=O)c1nc(C(F)(F)F)nn1-c1cc(SCC(F)(F)F)c(C)cc1F [Compound 203],92,,,
Cc1cc(F)c(-n2nc(C(F)(F)F)nc2C(N)=O)cc1SCC(F)(F)F [Compound 207],100,,,
Cc1cc(F)c(-n2nc(C(F)(F)F)nc2C#N)cc1SCC(F)(F)F [Compound 209],100,,,
